Experimental data from patent publication US20220249596A1, “PIC1 PEPTIDE COMPOSITIONS AND METHODS OF USE THEREOF FOR TREATMENT OF HYPOXIC ISCHEMIC ENCEPHALOPATHY” (REALTA HOLDINGS, LLC, priority 2019, published 2022).
No end group written: not given here.

How the values were obtained:
Type in all cases: in vivo, rat
C3aR = assay: Whole brain C3aR expression, Western blotting and immunofluorescence; conditions: PIC1 group versus NT animals, P<0.05
Experimental: (§1) After blocking for one hour at room temperature, tissues were incubated with 1:300 goat anti-Iba1 (Abcam), 1:250 goat anti-GFAP (Abcam), 1:500 chicken anti-NeuN (Millipore, Billerica, Mass.), or 1:100 mouse anti-NeuN (Millipore) in host appropriate blocking serum overnight at 4° C. Primary antibodies were probed with 1:500 donkey anti-goat (Abcam), goat anti-chicken (Abcam), or goat anti-mouse (Abcam) AF 488 or 568 in appropriate blocking serum for one hour at room temperature. Tissues were blocked a second time with NGS for one hour at room temperature. Samples were then probed with 1:300 mouse anti-C1q (Abcam), 1:300 rabbit anti-C9, 1:50 rabbit anti-MPO (Abcam), 1:200 rabbit anti-TMEM (Novus Bio, Centennial, Colo.), 1:100 rabbit anti-C3aR (Bioss), 1:100 Mouse anti-C5aR (Hycult), or 1:200 chicken anti-C3/C3a (Abcam) in NGS overnight at 4° C. and then with 1:500 goat anti-mouse, rabbit, or chicken (Abcam) AF 488 or 568 in NGS for one hour at room temperature.
Without wishing to be bound by theory, C3a is generated at the convergence of all known complement activation pathways (i.e., the classical, alternate and lectin pathways). To investigate further, C3aR levels in the brain were measured by Western blotting and immunofluorescence (FIG. 5). Western blotting was performed as follows. […]

C5a = assay: Systemic C5a level in plasma, fluorescent immunoassay; conditions: 12 and 24 hours after initial insult, P<0.05; persisted to 48 hours
Experimental: (§2) The local and systemic effects of NT, HT and PIC1 treatment on the complement cascade were measured. CNS C1q levels and systemic C1q and C5a levels were measured using a fluorescent immunoassay.
(§3) Systemic C1q and C5a levels were measured as follows. 100 μl of 1:5 plasma in 1×PBS was added to the wells of a plate described above and incubated overnight at 4° C. The plates were washed 3 times with PBST and blocked with NDS or NGS for one hour. Samples were probed with either 1:50 goat anti-human C1q (Complement Technology) in NDS or 1:200 mouse anti-human C5a (Human Complement Component C5a DuoSet ELISA, R&D Systems, Inc., Minneapolis, Minn.) in NGS for one hour at RT. The wells were washed and 1:500 donkey anti-goat 488 (Life Technologies) in NDS or 1:500 goat anti-mouse AF 568 (Life Technologies) in NGS was added, and incubated for one hour at RT. The wells were washed and the plate read using a Synergy HT (BioTek). Systemic C3a levels in plasma (1:20 dilution) were measured using a standard ELISA, according to the manufacturer's instructions (Rat C3a ELISA Kit, TSZ ELISA, Waltham, Mass.).

C1q [1] = assay: Immunofluorescence quantification of C1q in brain; conditions: ipsilateral cortex and hippocampus, 48 hours, versus NT and HT, P<0.05
Experimental: (§4) TUNEL/C1q staining was performed as follows. Five (5) μm paraffin-embedded coronal brain sections on slides were incubated (1 hour; 60° C.), deparaffinized with xylene, and rehydrated with ethanol (100%, 95%, 70%; RT). Endogenous peroxidase activity was blocked (0.3% H2O2/MeOH; 10 minutes; RT), and heat induced antigen retrieval was performed (when indicated) using 10 mM sodium citrate, pH 6.0. 10% normal serum (from the same species as the host of the secondary antibody) was used to block and to dilute antibodies. Samples were washed twice for 10 min each, in PBST between each step.
After blocking for one hour at room temperature, tissues were incubated with 1:300 goat anti-Iba1 (Abcam), 1:250 goat anti-GFAP (Abcam), 1:500 chicken anti-NeuN (Millipore, Billerica, Mass.), or 1:100 mouse anti-NeuN (Millipore) in host appropriate blocking serum overnight at 4° C. Primary antibodies were probed with 1:500 donkey anti-goat (Abcam), goat anti-chicken (Abcam), or goat anti-mouse (Abcam) AF 488 or 568 in appropriate blocking serum for one hour at room temperature. Tissues were blocked a second time with NGS for one hour at room temperature. […]

C1q [2] = assay: Systemic C1q level in plasma, fluorescent immunoassay; conditions: 8, 12 and 24 hours after initial insult, P<0.05
Experimental: as §2, §3

[3] = tested on: neurons, microglia and astrocytes of ipsilateral cortex and hippocampus; assay: Immunofluorescence of neurons (NeuN), microglia (Iba1), astrocytes (GFAP) after HIE; conditions: P<0.05
Experimental: as §4, §1
Fluorescent images of the cortex were taken at 20× magnification using a digital camera (DP70, Olympus Center, Valley Forge, Pa.), mounted on a BX50 Olympus microscope. Adobe Photoshop CS5 was used to merge immunofluorescence images, and Image J (National Institutes of Health) was used for analysis.

[4] = Barnes maze, spatial learning and memory
Experimental: Spatial learning and memory were evaluated by measuring navigational ability of rats in a Barnes maze 8 weeks after initial injury. The Barnes maze tests memory across test sessions or trials and is more closely related to long-term memory. The test was performed using a Plexiglas maze 122 cm in diameter, with 20 equidistant holes (10.5 cm diameter) spaced every […], and centered 20 cm from the outer perimeter. An escape box (8 cm in depth) was placed under one of the holes. The position of the escape box was varied randomly from rat to rat, but kept constant for a given rat throughout testing. A floodlight was placed over the maze to serve as an aversive stimulus.
Prior to testing, the rats underwent habituation sessions once a day for 5 consecutive days. In each session, the rats were placed in a holding box in the middle of the maze and allowed to get acclimated for 60 seconds. The holding box was then lifted up from the rats so that the rats were allowed to explore. The test was over when either the rat found the burrowing hole and burrowed for 10 seconds or the 5-minute time limit was reached. […] On the 14th day after the habituation sessions, the rats were tested to evaluate memory retention. Latency to investigate any hole, escape latency, and number of errors during the test trials were analyzed by two-way ANOVA, followed by Bonferroni's post hoc comparison matrix. The same measurements recorded during the memory retention test were analyzed by Student's t-test. Significance was considered at p<0.05.

C3a = assay: Systemic C3a level in plasma, ELISA; conditions: 8, 12 and 24 hours after initial insult, P<0.05
Experimental: as §3

## IALILEPICCQERAA-dPEG24 (cysteine pairing not given here) [PIC1]
C3aR
  whole brain C3aR expression: significantly higher
C5a
  systemic C5a levels, NT animals relative to PIC1-treated animals: significantly higher
C1q [1]
  C1q expression: significant reduction
C1q [2]
  C1q levels in plasma, NT animals relative to PIC1-treated animals: significantly higher
[3]; 48 hours, versus NT and HT
  neuronal density: higher neuronal density
[3]; versus NT
  astrogliosis: reduced astrogliosis
  microglial numbers and size: reduced microglial numbers and size
[4]; 8 weeks after injury, versus NT and HT animals
  Barnes maze: latency in finding the escape hole: significantly shorter
[4]; direct versus random or serial strategy
  Barnes maze: seeking strategy: more likely to use a direct strategy
[4]; versus HT-treated animals
  Barnes maze: errors in finding the escape hole: significantly fewer
[4]; versus NT animals, P=0.06, not statistically significant
  Barnes maze: errors in finding the escape hole: trended towards fewer errors
C3a
  C3a levels in plasma, NT animals relative to PIC1-treated animals: significantly higher
